In the NIST ThermoML archive (doi:10.1016/j.jct.2019.02.027):

Columns and labels:
[1] = 298.15 K; 101.33 kPa; Liquid; Vibrating tube method
[2] = xn = mol fraction of the nth substance listed; settings: 298.15 K, 100 kPa, Liquid, Vibrating tube method

O=Cc1ccco1 [2-furaldehyde]
Settings	mass density [kg/m3]
[1]	1155.45

O=Cc1ccco1 [2-furaldehyde] + CC(C)O
[2]
Settings	mass density [kg/m3]
x1 = 0.0534	803.11
x1 = 0.0877	817.2
x1 = 0.1839	856.01
x1 = 0.2041	864.12
x1 = 0.2517	882.87
x1 = 0.2794	893.74
x1 = 0.2855	896.16
x1 = 0.4063	942.61
x1 = 0.5153	983.56
x1 = 0.5364	991.32
x1 = 0.5702	1003.8
x1 = 0.6564	1035.2
x1 = 0.7345	1063.04
x1 = 0.8252	1094.94
x1 = 0.9055	1122.98
x1 = 1	1155.45

O=Cc1ccco1 [2-furaldehyde] + CCC(C)O
[2]
Settings	mass density [kg/m3]
x1 = 0.0237	810.18
x1 = 0.0782	827.38
x1 = 0.1343	845.24
x1 = 0.1345	845.28
x1 = 0.2696	889.52
x1 = 0.2773	892.16
x1 = 0.417	939.59
x1 = 0.4498	951
x1 = 0.535	980.92
x1 = 0.6274	1014.08
x1 = 0.6673	1028.58
x1 = 0.7355	1053.74
x1 = 0.803	1079.08
x1 = 0.8794	1108.12
x1 = 1	1155.45

O=Cc1ccco1 [2-furaldehyde] + CCCC(C)O
Settings	mass density [kg/m3]
[2], x1 = 1	1155.45

O=Cc1ccco1 [2-furaldehyde] + CCCCCCO
[2]
Settings	mass density [kg/m3]
x1 = 0.0958	837.47
x1 = 0.1364	847.08
x1 = 0.1378	847.41
x1 = 0.2218	868.43
x1 = 0.2573	877.76
x1 = 0.2623	879.07
x1 = 0.2983	888.83
x1 = 0.3699	909.14
x1 = 0.4124	921.74
x1 = 0.4947	947.51
x1 = 0.4965	948.07
x1 = 0.5802	976.2
x1 = 0.6437	998.96
x1 = 0.7375	1035.07
x1 = 0.7661	1046.67
x1 = 0.7703	1048.36
x1 = 0.847	1081.45
x1 = 0.8939	1102.9
x1 = 1	1155.45

O=Cc1ccco1 [2-furaldehyde] + CCCCCO
[2]
Settings	mass density [kg/m3]
x1 = 0.0837	833.12
x1 = 0.1212	843.42
x1 = 0.1906	863.01
x1 = 0.2617	883.85
x1 = 0.2997	895.29
x1 = 0.3856	922.11
x1 = 0.4254	934.98
x1 = 0.5075	962.35
x1 = 0.5396	973.38
x1 = 0.6236	1003.18
x1 = 0.708	1034.59
x1 = 0.7358	1045.18
x1 = 0.7671	1057.41
x1 = 0.8967	1110.25
x1 = 0.9015	1112.3
x1 = 1	1155.45

O=Cc1ccco1 [2-furaldehyde] + CCCO
[2]
Settings	mass density [kg/m3]
x1 = 0.0847	834.01
x1 = 0.134	853.46
x1 = 0.2237	888
x1 = 0.2415	894.81
x1 = 0.2507	898.28
x1 = 0.2827	910.39
x1 = 0.3632	940.23
x1 = 0.4309	964.88
x1 = 0.5022	990.31
x1 = 0.6164	1030.13
x1 = 0.7194	1065
x1 = 0.7803	1085.14
x1 = 0.8714	1114.75
x1 = 0.9006	1124.2
x1 = 0.9038	1125.2
x1 = 1	1155.45

Cc1ccco1 [2-methylfuran]
Settings	mass density [kg/m3]
[1]	910.73

Cc1ccco1 [2-methylfuran] + CC(C)O
[2]
Settings	mass density [kg/m3]
x1 = 0.0267	785.02
x1 = 0.0493	788.28
x1 = 0.0908	794.29
x1 = 0.1257	799.31
x1 = 0.179	806.65
x1 = 0.2619	817.86
x1 = 0.2995	822.82
x1 = 0.3935	835.05
x1 = 0.537	853.23
x1 = 0.6047	861.52
x1 = 0.6784	870.65
x1 = 0.7217	876.04
x1 = 0.8122	886.89
x1 = 0.8256	888.45
x1 = 0.8759	894.66
x1 = 0.9472	903.47
x1 = 1	910.73
